Laboratory results reported in patent US7166581B1, “Treatment of chemotherapeutic agent and antiviral agent toxicity with acylated pyrimidine nucleosides” (Wellstat Therapeutics Corporation, priority 1987, dated 2007).

Tests used:
[1] = system: hematopoietic system (AZT toxicity); test: Oral TAU vs hematopoietic damage by AZT in drinking water (Example 8); assay type: in vivo, Balb/C female mice
Protocol: Forty-two Balb/C female mice, each weighing approximately 19 grams, were divided into three different groups of 14 animals each. The three groups were: basal (no AZT, no treatment), control (AZT, water), and TAU (AZT, TAU at 460 mg/kg/treatment). AZT was administered ad libitum in the drinking water at a concentration of 1.5 mg/ml throughout the course of the experiment. The volume of AZT solution consumed in all treatment groups was similar and averaged 2.25 ml per day per mouse, resulting in a daily AZT dose of about 170 mg/kg per day. Water and TAU were administered in a volume of 0.2 mL three times per day for the first 24 days of the study, and twice each day thereafter.
All of the animals were weighed on the day the experiment began, once each week, and immediately prior to sacrifice. After weighing the mice on days 24 and 35, blood (0.2–0.3 ml) was collected from seven mice in each group by retro-orbital bleeding into EDTA for subsequent differential blood cell counting, including reticulocytes. Mice were then sacrificed by cervical dislocation; their right femurs removed and the contents expelled for cell counting; and their spleens removed and weighed.

[2] = system: hematopoietic system (5-FU toxicity); test: TAU dose-response on hematopoietic recovery after 5-FU (Example 2); assay type: in vivo, female Balb/C mice; design: Marrow: unit not given here; conditions: for HCT (11d): eleven days after 5-FU
Protocol: Seventy female Balb/C mice weighing approximately twenty grams were each given an i.p. injection of 5-FU (150 mg/kg) at 1:00 p.m. on the initial day of the study. These animals were then divided into five different treatment groups: control (water), and oral TAU at doses of 100, 250, 500, and 1,000 mg/kg/treatment. The test compounds were then given at 3:00, 5:00, 7:30, and 10:00 p.m. on the day of 5-FU administration; at 9:00 a.m., 11:00 a.m., and 1:00, 3:00, 6:00, and 10:00 p.m. the following day; and a final administration at 11:00 a.m. two days following the single 5-FU injection. Each treatment was given orally in a volume of 0.2 ml water (by gavage), except the highest dose of TAU which was administered in 0.4 ml of water.
On days seven and eleven following 5-FU administration, blood (0.2–0.3 ml) was collected from seven mice in each group by retro-orbital bleeding into EDTA for subsequent differential blood cell counting. Mice were sacrificed by cervical dislocation; their right femurs removed and the contents expelled for cell counting; and their spleens removed and weighed.

[3] = Plasma uridine after oral uridine or TAU, with or without dipyridamole (Example 12); assay type: in vivo, female Balb/C mice
Protocol: Female Balb/C mice with a body weight of 20 grams were divided into four groups of 8 animals each: [table] Dipyridamole was administered by intraperitoneal injection 30 minutes prior to uridine or TAU Uridine was administered orally by gavage as an aqueous solution in a volume of 0.4 ml. TAU was administered by gavage in an emulsion vehicle (1:1 corn oil/water with 2.5% Tween 80). Two mice from each group were bled from the suborbital plexus at each time point: 0 (Basal uridine levels before TAU or uridine administration), 0.5, 1, 2, and 4 hours after administration of TAU or uridine Plasma samples (0.1 ml) were deproteinized by addition of 0.2 ml methanol followed by centrifugation. Samples were lyophilized and then reconstituted with HPLC buffer (100 mM ammonium acetate, pH 6.5, for subsequent assay of uridine by reverse phase HPLC with UV absorbance detection (254 nm). Data points are the mean of two samples for each time point.

[4] = in vivo; design: species or system mice; conditions: mouse, ip, 300 mg/kg
Protocol: Plasma uridine levels were determined in mice at various times (15 minutes, 30 minutes, 1 hour, and 2 hours) after administration of the acyl derivatives of uridine utilized in Example 3 for attenuation of toxicity caused by 5-FU. Groups of mice (n=3 per compound per time point) received intraperitoneal injections of uridine (300 mg/kg), triacetyluridine (TAU; 455 mg/kg/treatment), benzoyluridine (BU; 428 mg/kg/treatment), ethoxycarbonyluridine (ECU; 389 mg/kg/treatment), octanoyluridine (OU; 455 mg/kg/treatment), and valeryluridine (VU; 403 mg/kg/treatment). The doses of the acyl derivatives of uridine are the molar equivalent of 300 mg/kg uridine. At the appropriate time points, blood samples (200 μl) were taken from mice via the retro-orbital sinus and immediately centrifuged. 75 μl of the resulting plasma was deproteinized with 2 volumes of methanol followed by centrifugation. The supernatant was lyophilized and reconstituted with 50 mM potassium phosphate buffer, pH 6.0, and analyzed for uridine content by HPLC on a reverse phase (C18) column. Uridine was separated from other plasma components in 50 mM potassium phosphate buffer, pH 6.0, with a methanol gradient (2% to 35% over 15 minutes). Uridine was detected and quantified by UV absorbance at 260 nm.

[5] = day 24, AZT in drinking water + oral TAU 460 mg/kg/treatment
[6] = day 35, AZT in drinking water + oral TAU 460 mg/kg/treatment
[7] = seven days after 5-FU, oral TAU 100 mg/kg/treatment
[8] = seven days after 5-FU, oral TAU 250 mg/kg/treatment
[9] = seven days after 5-FU, oral TAU 500 mg/kg/treatment
[10] = seven days after 5-FU, oral TAU 1000 mg/kg/treatment

Q: With CC(=O)OC[C@H]1O[C@@H](n2ccc(=O)[nH]c2=O)[C@H](OC(C)=O)[C@@H]1OC(C)=O [TAU, triacetyluridine] as the compound, how does the Body weights ([1]; day 7, AZT […] in drinking water + oral TAU 460 mg/kg/treatment) read?
A: Its Body weights is 19.51±0.38 grams.

Q: What about the RBC counts [1, 5] of the same compound?
A: Its RBC counts is 9.01±0.09.

Q: And the Total neutrophil counts [1, 5]?
A: Its Total neutrophil counts is 0.91±0.06.

Q: And the HCT [1, 6]?
A: The HCT was 41.26 ± .62 percentage.

Q: And the HGB [1, 6]?
A: Its HGB is 15.14 ± .12 gm/dl.

Q: And the “MCH (mean cell hematocrit)” value [1, 6]?
A: Its value is 18.49 ± .28 picograms.

Q: What about the MCV [1, 6] of the same compound?
A: Its MCV is 50.41 ± .48 fL.

Q: And the PLT [1, 6]?
A: Its PLT is 809 ± 06 K/μl.

Q: What about the RBC [1, 6] of the same compound?
A: The RBC was 8.20 ± .20 M/μl.

Q: And the reticulocyte levels [1, 6]?
A: The reticulocyte levels was 0.371 ×10^6 per microliter.

Q: What about the “Total neutrophil counts vs control” value ([2]; day eleven after 5-FU, TAU 250, 500, and 1,000 groups) of the same compound?
A: Its value is “significantly greater than control values”.

Q: What about the Spleen weight ([2]; day eleven after 5-FU, TAU 250 group) of the same compound?
A: The Spleen weight was 104.2 ± 3.5 mg.

Q: And the “Red blood cell counts” value ([2]; day eleven after 5-FU, TAU 500 group)?
A: The value was 8.72±0.18 ×10^6 per microliter.

Q: And the “Red blood cell counts” value ([2]; day eleven after 5-FU, TAU 1000 group)?
A: Its value is 8.63±0.16 ×10^6 per microliter.

Q: What about the “Total neutrophil counts, fold of controls” value ([2]; day seven after 5-FU, TAU 1,000 group) of the same compound?
A: Its value is “approximately three-fold”.

Q: And the “HCT (11d)” value ([2]; T100)?
A: The value was 36.80.

Q: What about the “HCT (11d)” value ([2]; T250) of the same compound?
A: Its value is 37.47 ± .83.

Q: And the “HCT (11d)” value ([2]; T500)?
A: Its value is 41.16 ± .88.

Q: What about the “HCT (11d)” value ([2]; T1000) of the same compound?
A: The value was 41.55 ± .77.

Q: What about the Marrow ([2]; seven days after 5-FU 150 mg/kg i.p., oral TAU 100 mg/kg/treatment) of the same compound?
A: Its Marrow is 1.77 ± .18.

Q: What about the “HCT (7d)” value ([2]; seven days after 5-FU, T100) of the same compound?
A: Its value is 37.77.

Q: What about the “HCT (7d)” value ([2]; seven days after 5-FU, T250) of the same compound?
A: The value was 40.04 ± .38.

Q: And the “HCT (7d)” value ([2]; seven days after 5-FU, T500)?
A: Its value is 39.50 ± .61.

Q: What about the “HCT (7d)” value ([2]; seven days after 5-FU, T1000) of the same compound?
A: Its value is 40.84 ± .68.

Q: And the Lym [2, 7]?
A: The Lym was 2.46 ± .04 K/μl.

Q: What about the Neut [2, 7] of the same compound?
A: Its Neut is “.014 ± .008 K/μl”.

Q: What about the PLT [2, 7] of the same compound?
A: The PLT was 440 ± 46 K/μl.

Q: What about the RBC [2, 7] of the same compound?
A: Its RBC is 8.20 ± .07 M/μl.

Q: And the WBC [2, 7]?
A: Its WBC is 2.47 ± .04 K/μl.

Q: And the Lym [2, 8]?
A: Its Lym is 2.71 ± .20 K/μl.

Q: And the Marrow [2, 8]?
A: Its Marrow is 2.91 ± .48.

Q: What about the Neut [2, 8] of the same compound?
A: The Neut was “.027 ± .012 K/μl”.

Q: What about the PLT [2, 8] of the same compound?
A: Its PLT is 601 ± 46 K/μl.

Q: And the RBC [2, 8]?
A: The RBC was 8.51 ± .06 M/μl.

Q: And the WBC [2, 8]?
A: Its WBC is 2.76 ± .20 K/μl.

Q: And the Lym [2, 9]?
A: The Lym was 3.99 ± .15 K/μl.

Q: And the Marrow [2, 9]?
A: The Marrow was 3.93 ± .39.

Q: And the Neut [2, 9]?
A: Its Neut is “.037 ± .020 K/μl”.

Q: And the PLT [2, 9]?
A: Its PLT is 712 ± 42 K/μl.

Q: What about the RBC [2, 9] of the same compound?
A: The RBC was 8.43 ± .16 M/μl.

Q: And the WBC [2, 9]?
A: Its WBC is 4.06 ± .14 K/μl.

Q: And the Lym [2, 10]?
A: Its Lym is 3.44 ± .23 K/μl.

Q: And the Marrow [2, 10]?
A: The Marrow was 4.42 ± .34.

Q: And the Neut [2, 10]?
A: Its Neut is “.071 ± .027 K/μl”.

Q: What about the PLT [2, 10] of the same compound?
A: Its PLT is 715 ± 35 K/μl.

Q: What about the RBC [2, 10] of the same compound?
A: Its RBC is 8.65 ± .15 M/μl.

Q: And the WBC [2, 10]?
A: The WBC was 3.57 ± .25 K/μl.

Q: With O=c1ccn([C@@H]2O[C@H](CO)[C@@H](O)[C@H]2O)c(=O)[nH]1 [Urd, uridine] as the compound, how does the concentration at 0 h ([3]; female, Balb/C, mouse, plasma, oral, 1000 mg/kg, 0 hr (basal, before TAU or uridine), DPM 25 mg/kg i.p. 30 min before where given, read-out: Plasma uridine levels) read?
A: The concentration at 0 h was 2 µM.

Q: What about the concentration at 0.5 h ([3]; female, Balb/C, mouse, plasma, oral, 0.5 hr after uridine 1000 mg/kg p.o. or equimolar TAU 1500 mg/kg p.o., ± DPM 25 mg/kg i.p., read-out: Plasma uridine levels) of the same compound?
A: Its concentration at 0.5 h is 4 µM.

Q: What about the concentration at 1 h ([3]; female, Balb/C, mouse, plasma, oral, 1 hr after uridine 1000 mg/kg p.o. or equimolar TAU 1500 mg/kg p.o., ± DPM 25 mg/kg i.p., read-out: Plasma uridine levels) of the same compound?
A: Its concentration at 1 h is 6 µM.

Q: What about the concentration at 2 h ([3]; female, Balb/C, mouse, plasma, oral, 2 hr after uridine 1000 mg/kg p.o. or equimolar TAU 1500 mg/kg p.o., ± DPM 25 mg/kg i.p., read-out: Plasma uridine levels) of the same compound?
A: The concentration at 2 h was 4 µM.

Q: What about the concentration at 4 h ([3]; female, Balb/C, mouse, plasma, oral, 4 hr after uridine 1000 mg/kg p.o. or equimolar TAU 1500 mg/kg p.o., ± DPM 25 mg/kg i.p., read-out: Plasma uridine levels) of the same compound?
A: The concentration at 4 h was 2 µM.

Q: What about the “peak plasma uridine levels” value ([3]; uridine 1000 mg/kg p.o. or equimolar TAU 1500 mg/kg p.o., ± DPM 25 mg/kg i.p.) of the same compound?
A: The value was 6 µM.

Q: What about the concentration at 15 min [4] of the same compound?
A: The concentration at 15 min was 911 µM.

Q: And the concentration at 30 min [4]?
A: The concentration at 30 min was 415 µM.

Q: And the concentration at 1 h [4]?
A: Its concentration at 1 h is 185 µM.

Q: And the concentration at 2 h [4]?
A: The concentration at 2 h was 5.3 µM.
